The results in this text go back to PMC12494820, “Predicting input signals of transcription factors in Escherichia coli” (Molecular Systems Biology, 2025).

Data set [1] concerns the target T1, LeuO (Escherichia coli, UniProt P10151).
T1 sequence (P10151 1-314): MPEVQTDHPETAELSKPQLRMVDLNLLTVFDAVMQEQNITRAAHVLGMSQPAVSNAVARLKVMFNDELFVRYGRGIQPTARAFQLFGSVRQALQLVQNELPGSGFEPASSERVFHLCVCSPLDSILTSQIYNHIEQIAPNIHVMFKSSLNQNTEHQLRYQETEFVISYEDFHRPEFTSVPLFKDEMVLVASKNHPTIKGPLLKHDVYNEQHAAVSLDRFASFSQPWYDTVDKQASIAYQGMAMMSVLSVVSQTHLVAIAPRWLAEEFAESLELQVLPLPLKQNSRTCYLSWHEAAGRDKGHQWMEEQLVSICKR
Description: thermal shift assay (Protein Thermal Shift Dye). To be noted: 10 mM compound; LeuO with leuLABCD promoter DNA; pH 7.5, EMSA buffer without BSA; activating effector. The class given is binding. Background: In EMSA bound probe runs differently from free probe, usually more slowly.

Data set [2] has as its system LeuO (Escherichia coli). Description: EMSA. To be noted: EMSA: 10 mM Tris-HCl, 50 mM KCl, 5 mM MgCl2, 5% glycerol, 0.1 mg/ml BSA, pH 7.5, 500 ng salmon sperm DNA in 20 µl, 15 min at room temperature; gel 0.5x TBE at ….

In general, ΔTm refers to the shift of the melting midpoint relative to a reference.

For the compound `CC(C)[C@@](O)(CC(=O)O)C(=O)O` [2-IPM, 2-isopropylmalate], the ΔTm in data set [1] was found to be 1.6 °C.
On to leuLABCD promoter region fragment, for which the K half in data set [2] amounted to 25 nM.
